Source: paper PMC10386772, “Novel covalent CDK7 inhibitor potently induces apoptosis in acute myeloid leukemia and synergizes with Venetoclax” (Journal of Experimental & Clinical Cancer Research : CR, 2023)

Biological target: CDK7 (Homo sapiens, UniProt P50613)
Assay: LANCE TR-FRET in vitro kinase assay (U-Light-MBP peptide, […] ATP, […] min; […] at […] min, […] at […] min); bioTHZ1 competition pull-down target occupancy in MOLM13 cells
Type: biochemical

CDK7, sequence (P50613 2-346): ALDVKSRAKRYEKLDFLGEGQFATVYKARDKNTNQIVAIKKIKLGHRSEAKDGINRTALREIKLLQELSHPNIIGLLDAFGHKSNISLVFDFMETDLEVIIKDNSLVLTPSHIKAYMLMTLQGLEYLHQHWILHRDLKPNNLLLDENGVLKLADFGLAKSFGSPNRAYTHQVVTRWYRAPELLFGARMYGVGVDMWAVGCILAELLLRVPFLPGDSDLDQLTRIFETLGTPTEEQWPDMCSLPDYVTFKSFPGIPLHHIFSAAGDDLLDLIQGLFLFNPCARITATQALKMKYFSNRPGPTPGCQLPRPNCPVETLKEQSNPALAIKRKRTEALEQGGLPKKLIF

IC50: 0.9 nM
Substance: XL102
